Test results published in patent US20260183301A1, “TREATING DISEASES AND DISORDERS WITH IRAK4-MODIFYING COMPOUNDS” (Curis, Inc., priority 2022, published 2026).
“Also recorded” adds a separate entry of the source.

Experiment: Phase I dose escalation trial in NHL: safety and tolerance (adverse effects, DLT)
[1] = 200 mg BID, N = 5, [E] not defined
[2] = 300 mg BID, N = 6, [E] not defined
[3] = 400 mg BID, N = 8, [E] not defined

Description: Seven dosing cohorts included 50 and 100 mg QD, and 50, 100, 200, 300, or 400 mg BID of daily continuous oral monotherapy in 21-Day cycles. Objective included safety and tolerance (primary), pk/pd and early efficacy (secondary), and biomarker correlations (exploratory). 31 patients with resistant or refractory, advanced NHL have been enrolled.

Cc1cc(-c2nc(C(=O)Nc3cc4oc(N5CCOCC5)nc4nc3N3CC[C@@H](O)C3)co2)ccn1 [Compound 1, emavusertib]
Back pain, All Grades (200 mg BID (n = 5)): 20% | Back pain, Grade 3 or 4 (200 mg BID (n = 5)): 0% | Constipation, All Grades (200 mg BID (n = 5)): 20% | Constipation, Grade 3 or 4 (200 mg BID (n = 5)): 0% | Cough, All Grades (200 mg BID (n = 5)): 40% | Cough, Grade 3 or 4 (200 mg BID (n = 5)): 0% | Dehydration, All Grades (200 mg BID (n = 5)): 20% | Dehydration, Grade 3 or 4 (200 mg BID (n = 5)): 0% | Diarrhea, All Grades (200 mg BID (n = 5)): 20% | Diarrhea, Grade 3 or 4 (200 mg BID (n = 5)): 0% | Dizziness, All Grades (200 mg BID (n = 5)): 0% | Dizziness, Grade 3 or 4 (200 mg BID (n = 5)): 0% | Dyspnoe, All Grades (200 mg BID (n = 5)): 20% | Dyspnoe, Grade 3 or 4 (200 mg BID (n = 5)): 0% | Fatigue, All Grades (200 mg BID (n = 5)): 40% | Fatigue, Grade 3 or 4 (200 mg BID (n = 5)): 0% | Headache, All Grades (200 mg BID (n = 5)): 20% | Headache, Grade 3 or 4 (200 mg BID (n = 5)): 0% | Insomnia, All Grades (200 mg BID (n = 5)): 20% | Insomnia, Grade 3 or 4 (200 mg BID (n = 5)): 0% | Muscle weakness, All Grades (200 mg BID (n = 5)): 20% | Muscle weakness, Grade 3 or 4 (200 mg BID (n = 5)): 20% | Myalgia, All Grades (200 mg BID (n = 5)): 40% | Myalgia, Grade 3 or 4 (200 mg BID (n = 5)): 0% | Nausea, All Grades (200 mg BID (n = 5)): 20% | Nausea, Grade 3 or 4 (200 mg BID (n = 5)): 0% | Oedema, All Grades (200 mg BID (n = 5)): 25% | Oedema, Grade 3 or 4 (200 mg BID (n = 5)): 0% | Peripheral sensory neuropathy, All Grades (200 mg BID (n = 5)): 0% | Peripheral sensory neuropathy, Grade 3 or 4 (200 mg BID (n = 5)): 0% | Rhabdomyolysis, All Grades (200 mg BID (n = 5)): 0% | Rhabdomyolysis, Grade 3 or 4 (200 mg BID (n = 5)): 0% | Upper respiratory infection, All Grades (200 mg BID (n = 5)): 40% | Upper respiratory infection, Grade 3 or 4 (200 mg BID (n = 5)): 20% | Vomiting, All Grades (200 mg BID (n = 5)): 20% | Vomiting, Grade 3 or 4 (200 mg BID (n = 5)): 0% | Anemia, All Grades (200 mg BID, N = 5): 1 (20.0) n (%) | Anemia, Grade 3 or Higher (200 mg BID, N = 5): 0 n (%) | Neutropenia, All Grades (200 mg BID, N = 5): 2 (40.0) n (%) | Neutropenia, Grade 3 or Higher (200 mg BID, N = 5): 2 (40.0) n (%) | Thrombocytopenia, All Grades (200 mg BID, N = 5): 0 n (%) | Thrombocytopenia, Grade 3 or Higher (200 mg BID, N = 5): 0 n (%) | Anemia, All Grades [E] [1]: [1] | Neutropenia, All Grades [E] [1]: [3] | Neutropenia, Grade 3 or Higher [E] [1]: [2] | Back pain, All Grades (300 mg BID (n = 6)): 0% | Back pain, Grade 3 or 4 (300 mg BID (n = 6)): 0% | Constipation, All Grades (300 mg BID (n = 6)): 0% | Constipation, Grade 3 or 4 (300 mg BID (n = 6)): 0% | Cough, All Grades (300 mg BID (n = 6)): 0% | Cough, Grade 3 or 4 (300 mg BID (n = 6)): 0% | Dehydration, All Grades (300 mg BID (n = 6)): 0% | Dehydration, Grade 3 or 4 (300 mg BID (n = 6)): 0% | Diarrhea, All Grades (300 mg BID (n = 6)): 40% | Diarrhea, Grade 3 or 4 (300 mg BID (n = 6)): 0% | Dizziness, All Grades (300 mg BID (n = 6)): 0% | Dizziness, Grade 3 or 4 (300 mg BID (n = 6)): 0% | Dyspnoe, All Grades (300 mg BID (n = 6)): 0% | Dyspnoe, Grade 3 or 4 (300 mg BID (n = 6)): 0% | Fatigue, All Grades (300 mg BID (n = 6)): 0% | Fatigue, Grade 3 or 4 (300 mg BID (n = 6)): 0% | Headache, All Grades (300 mg BID (n = 6)): 0% | Headache, Grade 3 or 4 (300 mg BID (n = 6)): 0% | Insomnia, All Grades (300 mg BID (n = 6)): 0% | Insomnia, Grade 3 or 4 (300 mg BID (n = 6)): 0% | Muscle weakness, All Grades (300 mg BID (n = 6)): 0% | Muscle weakness, Grade 3 or 4 (300 mg BID (n = 6)): 0% | Myalgia, All Grades (300 mg BID (n = 6)): 0% | Myalgia, Grade 3 or 4 (300 mg BID (n = 6)): 0% | Nausea, All Grades (300 mg BID (n = 6)): 17% | Nausea, Grade 3 or 4 (300 mg BID (n = 6)): 0% | Oedema, All Grades (300 mg BID (n = 6)): 0% | Oedema, Grade 3 or 4 (300 mg BID (n = 6)): 0% | Peripheral sensory neuropathy, All Grades (300 mg BID (n = 6)): 0% | Peripheral sensory neuropathy, Grade 3 or 4 (300 mg BID (n = 6)): 0% | Rhabdomyolysis, All Grades (300 mg BID (n = 6)): 0% | Rhabdomyolysis, Grade 3 or 4 (300 mg BID (n = 6)): 0% | Upper respiratory infection, All Grades (300 mg BID (n = 6)): 0% | Upper respiratory infection, Grade 3 or 4 (300 mg BID (n = 6)): 0% | Vomiting, All Grades (300 mg BID (n = 6)): 20% | Vomiting, Grade 3 or 4 (300 mg BID (n = 6)): 20% | Anemia, All Grades (300 mg BID, N = 6): 2 (33.3) n (%) | Anemia, Grade 3 or Higher (300 mg BID, N = 6): 0 n (%) | Neutropenia, All Grades (300 mg BID, N = 6): 1 (16.7) n (%) | Neutropenia, Grade 3 or Higher (300 mg BID, N = 6): 1 (16.7) n (%) | Thrombocytopenia, All Grades (300 mg BID, N = 6): 0 n (%) | Thrombocytopenia, Grade 3 or Higher (300 mg BID, N = 6): 0 n (%) | Anemia, All Grades [E] [2]: [3] | Neutropenia, All Grades [E] [2]: [5] | Neutropenia, Grade 3 or Higher [E] [2]: [1] | DLT (300 mg BID, six patients): without DLT | Back pain, All Grades (400 mg BID (n = 8)): 12.5% | Back pain, Grade 3 or 4 (400 mg BID (n = 8)): 0% | Constipation, All Grades (400 mg BID (n = 8)): 20% | Constipation, Grade 3 or 4 (400 mg BID (n = 8)): 0% | Cough, All Grades (400 mg BID (n = 8)): 0% | Cough, Grade 3 or 4 (400 mg BID (n = 8)): 0% | Dehydration, All Grades (400 mg BID (n = 8)): 12.5% | Dehydration, Grade 3 or 4 (400 mg BID (n = 8)): 0% | Diarrhea, All Grades (400 mg BID (n = 8)): 25% | Diarrhea, Grade 3 or 4 (400 mg BID (n = 8)): 0% | Dizziness, All Grades (400 mg BID (n = 8)): 25% | Dizziness, Grade 3 or 4 (400 mg BID (n = 8)): 0% | Dyspnoe, All Grades (400 mg BID (n = 8)): 12.5% | Dyspnoe, Grade 3 or 4 (400 mg BID (n = 8)): 12.5% | Fatigue, All Grades (400 mg BID (n = 8)): 50% | Fatigue, Grade 3 or 4 (400 mg BID (n = 8)): 0% | Headache, All Grades (400 mg BID (n = 8)): 12.5% | Headache, Grade 3 or 4 (400 mg BID (n = 8)): 0% | Insomnia, All Grades (400 mg BID (n = 8)): 12.5% | Insomnia, Grade 3 or 4 (400 mg BID (n = 8)): 0% | Muscle weakness, All Grades (400 mg BID (n = 8)): 12.5% | Muscle weakness, Grade 3 or 4 (400 mg BID (n = 8)): 0% | Myalgia, All Grades (400 mg BID (n = 8)): 37.5% | Myalgia, Grade 3 or 4 (400 mg BID (n = 8)): 0% | Nausea, All Grades (400 mg BID (n = 8)): 50% | Nausea, Grade 3 or 4 (400 mg BID (n = 8)): 0% | Oedema, All Grades (400 mg BID (n = 8)): 0% | Oedema, Grade 3 or 4 (400 mg BID (n = 8)): 0% | Peripheral sensory neuropathy, All Grades (400 mg BID (n = 8)): 25% | Peripheral sensory neuropathy, Grade 3 or 4 (400 mg BID (n = 8)): 0% | Rhabdomyolysis, All Grades (400 mg BID (n = 8)): 25% | Rhabdomyolysis, Grade 3 or 4 (400 mg BID (n = 8)): 25% | Upper respiratory infection, All Grades (400 mg BID (n = 8)): 12.5% | Upper respiratory infection, Grade 3 or 4 (400 mg BID (n = 8)): 0% | Vomiting, All Grades (400 mg BID (n = 8)): 25% | Vomiting, Grade 3 or 4 (400 mg BID (n = 8)): 0% | Anemia, All Grades (400 mg BID, N = 8): 1 (12.5) n (%) | Anemia, Grade 3 or Higher (400 mg BID, N = 8): 1 (12.5) n (%) | Neutropenia, All Grades (400 mg BID, N = 8): 2 (25.0) n (%) | Neutropenia, Grade 3 or Higher (400 mg BID, N = 8): 0 n (%) | Thrombocytopenia, All Grades (400 mg BID, N = 8): 1 (12.5) n (%) | Thrombocytopenia, Grade 3 or Higher (400 mg BID, N = 8): 1 (12.5) n (%) | Anemia, All Grades [E] [3]: [1] | Anemia, Grade 3 or Higher [E] [3]: [1] | Neutropenia, All Grades [E] [3]: [3] | Thrombocytopenia, All Grades [E] [3]: [2] | Thrombocytopenia, Grade 3 or Higher [E] [3]: [2] | DLT-evaluable patients with Grade 3 rhabdomyolysis (DLTs) (400 mg BID, reversible after treatment interruption): 2 of 5 | Grade 3 combined episodes of neutropenia, anemia, thrombocytopenia (18 patients at 200 to 400 mg BID): 4 | toxic deaths (Phase I NHL): No toxic deaths | overall safety and tolerance (Phase I NHL, 50 mg QD to 400 mg BID): well tolerated; also recorded: good safety and tolerance | creatine phosphokinase (CPK) elevation, grade (WM patient, 200 mg po BID, asymptomatic, resolved with exercise moderation): grade 2 | tolerability (WM patient, continuous oral treatment for close to 18 months): well tolerated | tolerability (WM patient, first dose level 50 mg): without adverse events | safety and tolerability profile (at RP2D (300 mg BID)): acceptable safety and tolerability profile | grade of most non-hematologic TEAEs (diarrhea, vomiting, fatigue, dyspnea, myalgia): Grade 1 or 2
